Experimental data published in BindingDB's records for doi:10.1021/jm980063g (Research Triangle Institute, 1998).

Assay: The compound was tested for antagonist activity by selective inhibition of [35S]GTP-gamma-S, binding in Guinea pig caudate stimulated by […] (Opioid receptor delta 1)

Question: For `C[C@H]1CN(C/C=C/c2ccccc2)CC[C@@]1(C)c1cccc(O)c1` [3-[(3R,4R)-3,4-Dimethyl-1-((E)-3-phenyl-allyl)-piperidin-4-yl]-phenol], which Ki is on record?
Answer: 1500 pM

Question: For `Cc1ccccc1/C=C/CN1CC[C@@](C)(c2cccc(O)c2)[C@@H](C)C1` [RTI-5989-25], which Ki is on record?
Answer: 355 pM
